Measured values reported in PMC7162861, “Synthesis, cytotoxicity, pharmacokinetic profile, binding with DNA and BSA of new imidazo[1,2-a]pyrazine-benzo[d]imidazol-5-yl hybrids” (Scientific Reports, 2020).

What was measured:
[1] = Experimental log P, shake-flask method; type: physicochemical; conditions: n-octanol/phosphate buffer pH 7.4, read-out: Exp. Log P
Method: Partition coefficients or experimental log P values of all synthesized compounds (9–23, 30 and 31) were calculated using the shake-flask method. Log P values were determined using n-octanol and phosphate buffer (pH = 7.4) at 10:1 ratio of volumes. Stock solutions (10^−3 M) of compounds were prepared in DMSO. Glass vials were used to make final solutions i.e. stock solution (250 µL) and phosphate buffer (125 µL). To record the absorbance, wavelength was selected based on λmax of the respective compound. Initial absorbance (Ai) for every compound was noted consuming the stock solution in the buffer phase. Now added n-octanol to every vial and shaken well using a mechanical shaker for 50 minutes. To get separation of both phases, glass vials were centrifuged for 35 min. at 2500 rpm. Then, the layer of octanol was separated from glass vial. The final absorbance (Af) of each compound was recorded by using the buffer layer. The values of P for compounds were determined by the following equation (Eq. 8):8 P=Ai−Af/Af×Vw/Vo

Row | Compound | melting point [°C] | logP [1]
1 | Cc1cccc(-c2cn3ccnc3c(-c3ccc4c(c3)ncn4C3CCCCC3)n2)c1 [Compound 15, 8-(1-cyclohexyl-1H-benzo[d]imidazol-5-yl)-6-(m-tolyl)imidazo[1,2-a]pyrazine] | 183 to 186 | 1.54
2 | CCc1ccc(-c2cn3ccnc3c(-c3ccc4c(c3)ncn4C3CCCCC3)n2)cc1 [Compound 16, 8-(1-cyclohexyl-1H-benzo[d]imidazol-5-yl)-6-(4-ethylphenyl)imidazo[1,2-a]pyrazine] | 182 to 185 | 1.74
3 | CC(=O)c1ccc(-c2cn3ccnc3c(-c3ccc4c(c3)ncn4C3CCCCC3)n2)cc1 [Compound 17, 1-(4-(8-(1-cyclohexyl-1H-benzo[d]imidazol-5-yl)imidazo[1,2-a]pyrazin-6-yl)phenyl)ethan-1-one] | 200 to 203 | 1.41
